Test results as given in ChEMBL document CHEMBL5365456, “Isolation and biological activity of natural chalcones based on antibacterial mechanism classification” (Bioorg Med Chem, 2023).
Converted amounts (≈) assume the structure as drawn.

What was measured:
[1] = system: Staphylococcus aureus; assay: Antibacterial activity against Staphylococcus aureus MSSA1 assessed bacterial growth inhibition by CLSI-based broth microdilution method; format: functional
[2] = system: Micrococcus luteus; assay: Antibacterial activity against Micrococcus luteus IFO 3333 assessed bacterial growth inhibition by two-fold serial broth dilution method; format: functional
[3] = system: Bacillus subtilis; assay: Antibacterial activity against Bacillus subtilis IFO 3060 assessed bacterial growth inhibition by two-fold serial broth dilution method; format: functional
[4] = system: Staphylococcus aureus; assay: Antibacterial activity against Staphylococcus aureus IFO 3007 assessed bacterial growth inhibition by two-fold serial broth dilution method; format: functional
[5] = Inhibition of Micrococcus luteus IFO 3333 membrane NADH oxidase by absorbance based assay; format: cell membranes
[6] = Inhibition of Micrococcus luteus IFO 3333 membrane NADH-cytochrome c reductase by absorbance based assay; format: cell membranes
[7] = system: Escherichia coli; assay: Antibacterial activity against Escherichia coli HUT 215 assessed bacterial growth inhibition by two-fold serial broth dilution method; format: functional
[8] = Inhibition of Escherichia coli HUT 215 membrane NADH oxidase by absorbance based assay; format: cell membranes
[9] = Inhibition of Pseudomonas aeruginosa JCM 2776 membrane NADH oxidase by absorbance based assay; format: cell membranes
[10] = Inhibition of Staphylococcus aureus IFO 3007 membrane NADH oxidase by absorbance based assay; format: cell membranes
[11] = system: Pseudomonas aeruginosa; assay: Antibacterial activity against Pseudomonas aeruginosa JCM 2776 assessed bacterial growth inhibition by two-fold serial broth dilution method; format: functional
[12] = Haemolytic activity in rabbit Erythrocyte infected with Staphylococcus aureus ATCC 10832 assessed as inhibition of alpha-toxin production at 0.125 ug/ml incubated for 20 mins; format: toxicity, cell-based, Oryctolagus cuniculus; conditions: at 0.125 µg/mL
[13] = Haemolytic activity in rabbit Erythrocyte infected with Staphylococcus aureus ATCC 29213 assessed as inhibition of alpha-toxin production at 0.125 ug/ml incubated for 20 mins; format: toxicity, cell-based, Oryctolagus cuniculus; conditions: at 0.125 µg/mL
[14] = system: Staphylococcus aureus; assay: Antibacterial activity against Staphylococcus aureus ATCC 29213 assessed as bacterial growth inhibition incubated for 24 hrs by CLSI-based broth microdilution assay; format: functional
[15] = system: Staphylococcus aureus; assay: Antibacterial activity against Staphylococcus aureus ATCC 10832 assessed as bacterial growth inhibition incubated for 24 hrs by CLSI-based broth microdilution assay; format: functional
[16] = Inhibition of FAS2 in Mycobacterium smegmatis mc2 155 transfected with pVV16 vector expressing Rv0636 by BCA assay; parameters: species or system Mycolicibacterium smegmatis
[17] = system: Escherichia coli; assay: Antibacterial activity against Escherichia coli ANS1 assessed as bacterial growth inhibition incubated for 20 hrs by broth microdilution method; format: functional
[18] = Inhibition of His-tagged Escherichia coli ANS1 FabG using acetoacetyl-CoA as substrate by spectrometric analysis
[19] = Inhibition of FAS2 in Mycobacterium smegmatis mc2 155 transfected with pVV16 vector by BCA assay; parameters: species or system Mycolicibacterium smegmatis
[20] = Inhibition of His-tagged Escherichia coli ANS1 Fab1 using trans-2-octanoyl-N-acetylcysteamine as substrate by spectrometric analysis
[21] = system: Staphylococcus aureus; assay: Antibacterial activity against Staphylococcus aureus ATCC 29213 assessed as bacterial growth inhibition incubated for 24 hrs by CLSI-based assay; format: functional
[22] = system: Candida albicans; assay: Antibiofilm activity against Candida albicans LAM-1 at 2 ug/ml incubated for 24 hrs by crystal violet staining based assay relative to control; format: functional
[23] = system: Streptococcus suis; assay: Antibiofilm activity against Streptococcus suis 05ZYH33 assessed as inhibition of biofilm formation at 4 ug/ml incubated for 18 to 24 hrs by crystal violet staining based assay relative to control; format: functional; conditions: time 18-24 hrs
[24] = system: Streptococcus suis; assay: Antibiofilm activity against Streptococcus suis 05ZYH33 assessed as inhibition of biofilm formation at 3 ug/ml incubated for 18 to 24 hrs by crystal violet staining based assay relative to control; format: functional; conditions: time 18-24 hrs
[25] = system: Staphylococcus aureus; assay: Antibiofilm activity against Staphylococcus aureus ATCC 29213 at 128 ug/ml relative to control; format: functional
[26] = Haemolytic activity in rabbit Erythrocyte infected with methicillin-Resistant Staphylococcus aureus 2985 assessed as inhibition of alpha-toxin production at 2 ug/ml incubated for 15 mins; format: toxicity, cell-based, Oryctolagus cuniculus; conditions: 0.25 h, at 2 µg/mL
[27] = system: Staphylococcus aureus; assay: Antibacterial activity against methicillin-Sensitive Staphylococcus aureus ATCC 29213 assessed as bacterial growth inhibition by CLSI-based broth microdilution method; format: functional
[28] = system: Staphylococcus aureus; assay: Antibacterial activity against Staphylococcus aureus ATCC 29213 assessed bacterial growth inhibition by CLSI-based broth microdilution method; format: functional
[29] = system: Candida albicans; assay: Antifungal activity against Candida albicans LAM-1 assessed as fungal growth inhibition incubated for 24 hrs; format: functional
[30] = system: Enterococcus faecalis; assay: Antibiofilm activity against Enterococcus faecalis 16C106 at 4.23 ug/ml incubated for 24 hrs by crystal violet staining based assay relative to control; format: functional
[31] = system: Candida albicans; assay: Antibiofilm activity against Candida albicans ATCC 28366 at 0.2 ug/ml incubated for 24 hrs by crystal violet staining based assay relative to control; format: functional
[32] = system: Candida albicans; assay: Antibiofilm activity against Candida albicans LAM-1 at 0.2 ug/ml incubated for 24 hrs by crystal violet staining based assay; format: functional
[33] = system: Enterococcus faecalis; assay: Antibacterial activity against Enterococcus faecalis 16C106 assessed as bacterial growth inhibition by CLSI based broth microdilution assay; format: functional
[34] = system: Candida albicans; assay: Inhibition of Candida albicans ATCC 28366 hyphal transition at 100 ug/ml incubated upto 4 hrs relative to control; format: functional
[35] = system: Enterococcus faecalis; assay: Antibiofilm activity against Enterococcus faecalis 16C51 at 2.115 ug/ml incubated for 24 hrs by crystal violet staining based assay relative to control; format: functional
[36] = system: Candida albicans; assay: Antifungal activity against Candida albicans ATCC 28366 assessed as fungal growth inhibition incubated for 24 hrs; format: functional
[37] = Hemolytic activity in human RBC infected with Streptococcus suis 05ZYH33 at 1.5 ug/ml measured after 1 hr by microplate reader method; format: toxicity, cell-based; conditions: erythrocyte, at 1.5 µg/mL
[38] = system: Rhizomucor pusillus; assay: Antibacterial activity against Rhizomucor pusillus HUT 1185 assessed bacterial growth inhibition by two-fold serial broth dilution method; format: functional
[39] = system: Candida albicans; assay: Antibiofilm activity against Candida albicans ATCC 28366 at 2 ug/ml incubated for 24 hrs by crystal violet staining based assay relative to control; format: functional
[40] = system: Enterococcus faecalis; assay: Antibacterial activity against Enterococcus faecalis 16C51 assessed as bacterial growth inhibition by CLSI based broth microdilution assay; format: functional
[41] = system: Enterococcus faecalis; assay: Antibiofilm activity against Enterococcus faecalis 16C106 at 2.115 ug/ml incubated for 24 hrs by crystal violet staining based assay relative to control; format: functional
[42] = system: Streptococcus suis; assay: Antibacterial activity against Streptococcus suis 05ZYH33 assessed as bacterial growth inhibition incubated for 24 hrs; format: functional
[43] = Haemolytic activity in rabbit Erythrocyte infected with Staphylococcus aureus ATCC 29213 assessed as inhibition of alpha-toxin production at 2 ug/ml incubated for 15 mins; format: toxicity, cell-based, Oryctolagus cuniculus; conditions: 0.25 h, at 2 µg/mL
[44] = system: Candida albicans; assay: Inhibition of Candida albicans LAM-1 hyphal transition at 100 ug/ml incubated upto 4 hrs relative to control; format: functional
[45] = system: Enterococcus faecalis; assay: Antibiofilm activity against Enterococcus faecalis 16C51 at 4.23 ug/ml incubated for 24 hrs by crystal violet staining based assay relative to control; format: functional
[46] = system: Staphylococcus aureus; assay: Antibacterial activity against methicillin-Resistant Staphylococcus aureus 2985 assessed as bacterial growth inhibition by CLSI-based broth microdilution method; format: functional
[47] = system: Staphylococcus aureus; assay: Antibiofilm activity against Staphylococcus aureus ATCC 29213 at 16 ug/ml relative to control; format: functional
[48] = Hemolytic activity in human RBC infected with Streptococcus suis 05ZYH33 at 2 ug/ml measured after 1 hr by microplate reader method; format: toxicity, cell-based; conditions: erythrocyte, at 2 µg/mL

CC1(C)C=Cc2c(ccc(C(=O)/C=C/c3ccc(O)cc3)c2O)O1
MIC [1]: 4 mg/L (≈ 12.4 µM)

COc1c(/C=C/C(=O)c2ccc(O)c(CC=C(C)C)c2)ccc(O)c1O [LICOCHALCONE D]
MIC [2]: 50 mg/L (≈ 141 µM)
MIC [3]: 50 mg/L (≈ 141 µM)
MIC [4]: 50 mg/L (≈ 141 µM)

COc1c(/C=C/C(=O)c2ccc(O)cc2)ccc(O)c1CC=C(C)C
MIC [2]: 6.25 mg/L (≈ 18.5 µM)
IC50 [5]: 3 µM
IC50 [6]: 29.6 µM
MIC [7]: > 100 mg/L
MIC [3]: 12.5 mg/L (≈ 36.9 µM)
IC50 [8]: 7.4 µM
IC50 [9]: 13.9 µM
MIC [4]: 6.25 mg/L (≈ 18.5 µM)
IC50 [10]: 23.4 µM
MIC [11]: > 100 mg/L

C=C(C)[C@@H](C)c1cc(/C=C/C(=O)c2ccc(O)cc2)c(OC)cc1O
inhibition (INH) [12]: 58%
inhibition (INH) [13]: 33%
MIC [14]: 2 mg/L (≈ 5.91 µM)
MIC [15]: 2 mg/L (≈ 5.91 µM)

O=C(/C=C/c1ccc(O)c(O)c1)c1ccc(O)cc1O [BUTEIN]
IC50 [16]: 30 mg/L (≈ 110 µM)
MIC [17]: 32 µM (≈ 8.71 µg/mL)
IC50 [18]: 10 µM
IC50 [19]: 22 mg/L (≈ 80.8 µM)
IC50 [20]: 30 µM

C=CC(C)(C)c1cc(/C=C/C(=O)c2ccc(O)cc2)c(OC)cc1O [LICOAGROCHACONE A]
MIC [21]: 2 mg/L (≈ 5.91 µM)
inhibition at 2 µg/mL [22]: 76%
MIC [2]: 1.56 mg/L (≈ 4.61 µM)
inhibition at 4 µg/mL [23]: 60%
IC50 [5]: 6.2 µM
IC50 [6]: 14.8 µM
inhibition at 3 µg/mL [24]: 30%
inhibition at 128 µg/mL [25]: 60%
inhibition (INH) [26]: 93%
MIC [27]: 4 mg/L (≈ 11.8 µM)
MIC [28]: 4 mg/L (≈ 11.8 µM)
MIC [7]: > 100 mg/L
MIC [29]: 12.5 mg/L (≈ 36.9 µM)
inhibition at 4.23 µg/mL [30]: 85%
MIC [3]: 3.13 mg/L (≈ 9.25 µM)
inhibition at 0.2 µg/mL [31]: 59%
inhibition at 0.2 µg/mL [32]: 35%
MIC [33]: 8.46 mg/L (≈ 25 µM)
inhibition at 100 µg/mL [34]: 100%
inhibition at 2.115 µg/mL [35]: 50%
MIC [36]: 6.25 mg/L (≈ 18.5 µM)
inhibition (INH) [37]: 63%
IC50 [8]: 9.5 µM
MIC [38]: 12.5 mg/L (≈ 36.9 µM)
inhibition at 2 µg/mL [39]: 81%
MIC [40]: 8.46 mg/L (≈ 25 µM)
inhibition at 2.115 µg/mL [41]: 50%
IC50 [9]: 18.9 µM
MIC [42]: 4 mg/L (≈ 11.8 µM)
inhibition (INH) [43]: 95%
MIC [4]: 1.56 mg/L (≈ 4.61 µM)
inhibition at 100 µg/mL [44]: 79%
IC50 [10]: 8 µM
inhibition at 4.23 µg/mL [45]: 80%
MIC [46]: 4 mg/L (≈ 11.8 µM)
inhibition at 16 µg/mL [47]: 60%
inhibition (INH) [48]: 81%
MIC [11]: > 100 mg/L

COc1c(/C=C/C(=O)c2ccc(O)cc2)ccc(O)c1O
MIC [2]: 50 mg/L (≈ 175 µM)
MIC [3]: 10 mg/L (≈ 34.9 µM)
MIC [4]: 100 mg/L (≈ 349 µM)
